The source made the active and inactive calls.
Columns and labels:
[1] = inhibitors of clade B AD8 Env fusion, dose response, cell-based, cherry-pick (AID 652062); type: functional;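 note: luciferase signal from cell-cell fusion driven by HIV-1 clade B AD8 Env; potency is for inhibitors of fusion seen as a drop in luminescence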
[2] = molecular target: T1, Protein skinhead-1 (Caenorhabditis elegans, UniProt P34707); type: functional
T1 sequence (P34707 whole entry): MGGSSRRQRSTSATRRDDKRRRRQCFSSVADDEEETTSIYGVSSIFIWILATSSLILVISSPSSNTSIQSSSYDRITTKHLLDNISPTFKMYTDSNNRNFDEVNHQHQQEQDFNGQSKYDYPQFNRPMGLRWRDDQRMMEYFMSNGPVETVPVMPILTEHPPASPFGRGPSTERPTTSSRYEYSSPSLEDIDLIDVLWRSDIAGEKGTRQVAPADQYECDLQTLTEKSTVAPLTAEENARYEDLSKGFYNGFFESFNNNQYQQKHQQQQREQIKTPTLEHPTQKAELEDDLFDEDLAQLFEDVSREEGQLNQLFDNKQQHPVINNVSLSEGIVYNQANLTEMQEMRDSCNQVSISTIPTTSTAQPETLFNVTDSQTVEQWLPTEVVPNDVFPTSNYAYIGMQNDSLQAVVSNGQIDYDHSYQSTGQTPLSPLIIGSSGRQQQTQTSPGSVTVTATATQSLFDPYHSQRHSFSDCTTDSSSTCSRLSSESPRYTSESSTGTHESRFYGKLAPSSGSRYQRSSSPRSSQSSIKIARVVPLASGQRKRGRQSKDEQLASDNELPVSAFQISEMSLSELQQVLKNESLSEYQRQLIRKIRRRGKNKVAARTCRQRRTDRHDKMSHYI

[3] = molecular target: T2, Polyadenylate-binding protein 1 (Homo sapiens, UniProt P11940); experiment: PABP1 MLLE–PAM2 interaction inhibitors, dose response, miRNA deadenylation inhibitor project, biochemical, fluorescence polarization, Cy5-PAM2 peptide, secondary (AID 602260); type: functional; conditions: read-out: IC50_Mean
T2 sequence (P11940 whole entry): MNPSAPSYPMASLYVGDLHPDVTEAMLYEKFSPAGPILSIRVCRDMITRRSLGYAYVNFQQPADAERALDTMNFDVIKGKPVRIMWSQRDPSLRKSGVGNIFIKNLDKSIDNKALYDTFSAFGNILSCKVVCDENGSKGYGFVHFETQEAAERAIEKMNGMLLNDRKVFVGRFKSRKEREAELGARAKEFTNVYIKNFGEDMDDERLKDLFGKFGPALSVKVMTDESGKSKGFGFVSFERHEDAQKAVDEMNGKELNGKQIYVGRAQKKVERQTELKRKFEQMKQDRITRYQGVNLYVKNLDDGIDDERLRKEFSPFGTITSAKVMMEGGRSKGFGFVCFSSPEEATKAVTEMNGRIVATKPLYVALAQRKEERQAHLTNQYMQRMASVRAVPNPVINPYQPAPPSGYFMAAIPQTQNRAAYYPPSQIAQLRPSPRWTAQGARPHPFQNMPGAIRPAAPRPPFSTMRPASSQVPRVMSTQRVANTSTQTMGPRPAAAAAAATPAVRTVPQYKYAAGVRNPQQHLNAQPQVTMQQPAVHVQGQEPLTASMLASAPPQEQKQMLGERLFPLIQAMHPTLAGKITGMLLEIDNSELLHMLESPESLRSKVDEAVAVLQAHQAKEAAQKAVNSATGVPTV

[4] = molecular target: T2, Polyadenylate-binding protein 1; experiment: PABP1 MLLE–PAM2 binding inhibitor potency, dose response, biochemical, fluorescence polarization, FITC-PAM2 peptide (AID 602259); type: functional; conditions: read-out: IC50_Mean
[5] = molecular target: T3, Fatty acid synthase (Homo sapiens, UniProt P49327); experiment: FAS thioesterase domain inhibitors, dose response, biochemical, kinetic fluorescence intensity (AID 624326); type: functional;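 note: rate of fluorescence rise from hydrolysis of a fluorogenic O-methyl fluorescein ester substrate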
T3 sequence (P49327 whole entry, the tested form may be a part): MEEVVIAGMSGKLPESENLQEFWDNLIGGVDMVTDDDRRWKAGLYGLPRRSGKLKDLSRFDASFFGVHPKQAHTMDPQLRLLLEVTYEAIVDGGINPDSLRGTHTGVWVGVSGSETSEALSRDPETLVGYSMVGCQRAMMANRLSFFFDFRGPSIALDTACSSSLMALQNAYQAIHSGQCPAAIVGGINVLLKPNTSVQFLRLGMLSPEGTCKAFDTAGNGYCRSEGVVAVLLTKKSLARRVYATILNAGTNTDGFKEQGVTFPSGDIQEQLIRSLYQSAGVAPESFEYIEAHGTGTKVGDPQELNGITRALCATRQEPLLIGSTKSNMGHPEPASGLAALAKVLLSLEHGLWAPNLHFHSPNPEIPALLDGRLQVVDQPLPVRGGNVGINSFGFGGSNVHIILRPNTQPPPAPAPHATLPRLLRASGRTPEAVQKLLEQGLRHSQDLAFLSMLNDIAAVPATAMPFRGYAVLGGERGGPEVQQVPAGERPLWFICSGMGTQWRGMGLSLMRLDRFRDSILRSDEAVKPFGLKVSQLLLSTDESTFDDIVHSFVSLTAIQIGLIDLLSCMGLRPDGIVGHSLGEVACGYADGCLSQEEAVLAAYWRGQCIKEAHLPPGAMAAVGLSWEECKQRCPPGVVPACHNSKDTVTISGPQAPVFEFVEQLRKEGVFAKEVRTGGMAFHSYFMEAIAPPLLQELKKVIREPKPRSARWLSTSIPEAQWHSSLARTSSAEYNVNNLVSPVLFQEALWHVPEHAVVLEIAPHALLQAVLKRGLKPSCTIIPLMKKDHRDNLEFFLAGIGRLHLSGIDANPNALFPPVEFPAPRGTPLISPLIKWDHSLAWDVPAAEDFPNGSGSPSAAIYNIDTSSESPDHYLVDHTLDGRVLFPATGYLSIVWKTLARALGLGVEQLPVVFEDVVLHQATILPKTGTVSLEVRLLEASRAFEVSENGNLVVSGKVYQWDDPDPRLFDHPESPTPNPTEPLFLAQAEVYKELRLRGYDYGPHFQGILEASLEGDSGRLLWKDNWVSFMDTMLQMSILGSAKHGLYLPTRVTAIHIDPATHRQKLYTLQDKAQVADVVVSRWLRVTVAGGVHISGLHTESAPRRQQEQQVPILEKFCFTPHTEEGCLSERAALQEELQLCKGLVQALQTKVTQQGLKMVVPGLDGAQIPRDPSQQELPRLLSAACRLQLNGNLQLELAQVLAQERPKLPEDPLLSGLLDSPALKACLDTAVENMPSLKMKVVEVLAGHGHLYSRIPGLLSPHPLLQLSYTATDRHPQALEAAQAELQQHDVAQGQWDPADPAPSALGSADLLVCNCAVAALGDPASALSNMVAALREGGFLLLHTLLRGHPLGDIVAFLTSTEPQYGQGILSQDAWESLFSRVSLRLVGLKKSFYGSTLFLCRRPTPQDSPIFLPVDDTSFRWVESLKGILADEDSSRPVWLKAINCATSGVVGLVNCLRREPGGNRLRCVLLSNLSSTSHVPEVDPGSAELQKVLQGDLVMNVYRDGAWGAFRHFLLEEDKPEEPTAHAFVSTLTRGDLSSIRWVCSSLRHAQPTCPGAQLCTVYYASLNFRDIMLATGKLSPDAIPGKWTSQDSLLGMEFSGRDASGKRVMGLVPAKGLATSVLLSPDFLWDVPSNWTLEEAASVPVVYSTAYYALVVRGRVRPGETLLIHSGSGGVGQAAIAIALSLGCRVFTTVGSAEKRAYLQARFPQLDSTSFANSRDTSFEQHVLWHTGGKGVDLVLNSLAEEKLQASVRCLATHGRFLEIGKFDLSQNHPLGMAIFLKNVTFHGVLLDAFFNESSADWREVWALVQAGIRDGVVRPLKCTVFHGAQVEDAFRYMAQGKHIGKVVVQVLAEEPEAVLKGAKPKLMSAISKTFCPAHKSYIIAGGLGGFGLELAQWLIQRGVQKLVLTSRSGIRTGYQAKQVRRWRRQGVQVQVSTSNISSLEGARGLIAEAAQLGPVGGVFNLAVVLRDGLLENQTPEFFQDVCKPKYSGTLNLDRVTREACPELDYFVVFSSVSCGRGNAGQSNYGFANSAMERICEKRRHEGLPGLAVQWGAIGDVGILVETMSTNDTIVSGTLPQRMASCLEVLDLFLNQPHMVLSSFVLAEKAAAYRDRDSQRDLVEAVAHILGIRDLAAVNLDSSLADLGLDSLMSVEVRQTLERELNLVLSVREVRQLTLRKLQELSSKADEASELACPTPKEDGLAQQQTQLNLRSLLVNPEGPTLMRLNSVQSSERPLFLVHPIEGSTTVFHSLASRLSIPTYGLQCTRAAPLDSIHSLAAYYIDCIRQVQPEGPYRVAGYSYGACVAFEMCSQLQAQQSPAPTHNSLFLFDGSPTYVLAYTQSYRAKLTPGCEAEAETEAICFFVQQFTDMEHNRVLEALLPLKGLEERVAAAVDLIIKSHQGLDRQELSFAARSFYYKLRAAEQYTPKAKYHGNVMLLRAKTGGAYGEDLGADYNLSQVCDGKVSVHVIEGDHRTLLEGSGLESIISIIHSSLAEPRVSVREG

[6] = molecular target: T3, Fatty acid synthase; experiment: FAS thioesterase domain inhibitors, dose response, biochemical, endpoint fluorescence intensity, uHTS hits (AID 624327); type: functional;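 note: fluorescence from hydrolysis of an O-methyl fluorescein acyl ester substrate by the enzyme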
[7] = molecular target: Luciferin 4-monooxygenase (Photinus pyralis, UniProt P08659); experiment: firefly luciferase enzyme inhibitors, dose response, biochemical, luminescence (AID 1891)
Sequence of Luciferin 4-monooxygenase (P08659 whole entry): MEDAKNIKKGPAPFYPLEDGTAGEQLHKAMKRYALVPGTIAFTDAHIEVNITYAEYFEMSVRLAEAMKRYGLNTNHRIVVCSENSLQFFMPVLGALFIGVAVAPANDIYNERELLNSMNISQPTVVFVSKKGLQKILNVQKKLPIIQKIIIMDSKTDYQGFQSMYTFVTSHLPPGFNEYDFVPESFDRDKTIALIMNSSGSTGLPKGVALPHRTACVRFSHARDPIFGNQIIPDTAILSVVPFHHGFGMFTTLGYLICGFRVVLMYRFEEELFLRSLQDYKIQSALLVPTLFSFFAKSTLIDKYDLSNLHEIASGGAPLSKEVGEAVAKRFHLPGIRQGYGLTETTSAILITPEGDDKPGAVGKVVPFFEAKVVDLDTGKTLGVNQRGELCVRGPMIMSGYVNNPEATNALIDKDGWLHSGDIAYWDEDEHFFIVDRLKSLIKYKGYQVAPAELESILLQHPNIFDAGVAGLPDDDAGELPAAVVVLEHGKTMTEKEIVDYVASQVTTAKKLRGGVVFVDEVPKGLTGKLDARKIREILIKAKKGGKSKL

[8] = Luminescence Cell-Based Dose Confirmation HTS to Identify Inhibitors of Platelet Dense Granule Release. [Related pubchem assays: 1663 (Primary HTS), 1678 (Summary of Project)]; type: functional
[9] = molecular target: T4, Heat shock factor protein 1 (Mus musculus, UniProt P38532); experiment: inhibition of MG132-induced HSE-luciferase signal, confirmation, cell-based, NIH3T3, luminescence, dose retest (AID 2382); type: functional;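 note: NIH3T3 fibroblasts with HSF1-driven luciferase reporter stressed by proteasome inhibitor MG132; luminescence from HSF1-driven luciferase expression after 8 hours of MG132 stress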
T4 sequence (P38532 whole entry): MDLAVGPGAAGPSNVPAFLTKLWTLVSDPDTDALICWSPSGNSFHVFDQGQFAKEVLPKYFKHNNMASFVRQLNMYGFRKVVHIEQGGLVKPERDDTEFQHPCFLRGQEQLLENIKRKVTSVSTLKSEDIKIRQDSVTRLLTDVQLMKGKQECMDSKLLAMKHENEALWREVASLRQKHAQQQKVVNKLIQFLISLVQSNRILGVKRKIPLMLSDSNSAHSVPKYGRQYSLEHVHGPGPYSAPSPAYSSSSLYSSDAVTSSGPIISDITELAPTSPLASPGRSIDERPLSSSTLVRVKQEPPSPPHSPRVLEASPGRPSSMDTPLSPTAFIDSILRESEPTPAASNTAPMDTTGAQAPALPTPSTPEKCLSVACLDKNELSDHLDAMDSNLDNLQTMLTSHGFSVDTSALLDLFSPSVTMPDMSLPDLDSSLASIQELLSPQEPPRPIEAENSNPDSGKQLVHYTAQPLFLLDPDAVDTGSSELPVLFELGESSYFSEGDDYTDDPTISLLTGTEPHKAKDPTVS

[10] = molecular target: T5, Calpain-2 catalytic subunit (Sus scrofa, UniProt P43367); experiment: pig calpain II inhibitor potency, dose response, biochemical, fluorogenic peptide substrate (AID 1420); type: functional
T5 sequence (P43367 whole entry): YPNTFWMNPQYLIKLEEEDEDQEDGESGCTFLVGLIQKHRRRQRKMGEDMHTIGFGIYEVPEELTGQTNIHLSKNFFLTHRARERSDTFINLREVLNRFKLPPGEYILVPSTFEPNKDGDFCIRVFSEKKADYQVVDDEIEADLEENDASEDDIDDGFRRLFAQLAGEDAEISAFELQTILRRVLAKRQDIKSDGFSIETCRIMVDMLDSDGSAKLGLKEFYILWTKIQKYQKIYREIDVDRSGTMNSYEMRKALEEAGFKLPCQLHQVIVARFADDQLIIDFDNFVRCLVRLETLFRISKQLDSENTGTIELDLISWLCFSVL

[11] = microbe, parasite or virus in culture; type: functional; conditions: Mycobacterium tuberculosis
[12] = cytotoxicity toward NIH3T3 fibroblasts, dose response, counter-screen, cell-based, ATP luminescence, mouse fibroblasts (AID 2010); type: functional;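 note: cells exposed to compound for about 90 hours before reading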
[13] = inhibitors of intracellular T. cruzi replication, confirmation, NIH3T3 host cells, beta-gal luminescence (AID 2044); type: functional, cell-based;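 note: intracellular parasites grown in NIH/3T3 mouse fibroblasts as host cells; luminescent beta-galactosidase reporter signal from transgenic T. cruzi replicating inside host cells; inhibitors lower the luminescence signal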
[14] = molecular target: T6, Streptokinase A (Streptococcus pyogenes serotype M1, UniProt P10520); experiment: S. pyogenes streptokinase expression inhibitors, potency, dose response, plasminogen activation absorbance, OD405 (AID 1914); type: functional, Streptococcus pyogenes M1 GAS;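 note: secreted streptokinase activity via plasminogen activation per viability signal from cell pellet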
T6 sequence (P10520 whole entry): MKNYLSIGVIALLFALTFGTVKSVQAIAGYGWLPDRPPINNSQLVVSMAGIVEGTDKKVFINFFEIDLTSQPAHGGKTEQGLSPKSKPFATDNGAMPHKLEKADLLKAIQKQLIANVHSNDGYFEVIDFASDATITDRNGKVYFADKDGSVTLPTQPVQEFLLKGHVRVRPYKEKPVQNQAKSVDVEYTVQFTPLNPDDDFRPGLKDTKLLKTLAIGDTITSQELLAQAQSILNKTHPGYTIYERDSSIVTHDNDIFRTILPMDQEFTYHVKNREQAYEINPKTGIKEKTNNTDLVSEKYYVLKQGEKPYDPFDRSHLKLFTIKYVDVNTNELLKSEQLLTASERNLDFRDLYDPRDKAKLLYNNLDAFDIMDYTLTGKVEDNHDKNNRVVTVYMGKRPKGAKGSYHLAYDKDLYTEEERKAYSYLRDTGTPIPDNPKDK

[15] = system: Streptococcus sp. 'group A'; experiment: growth inhibition of control SK(-) GAS strain, dose response, counter-screen for streptokinase expression inhibitor project, luminescence, kanamycin, BacTiterGlo, confirmation (AID 1900); type: functional, organism-based
[16] = system: Streptococcus; experiment: Group A Streptococcus viability loss, dose response, counter-screen for streptokinase expression inhibitor project, luminescence, BacTiterGlo (AID 1915); type: functional, organism-based;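 note: potency for reduction of bacterial viability or growth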

COc1ccc(NS(=O)(=O)c2ccc3c(c2)OCCO3)cc1OC
AC50 [1]: 7.24 µM (active)

O=C(CCc1ccccc1)NC1CCSC1=O (stereo not drawn)
IC50 [2]: > 100 µM (inactive)

COc1cccc(NC(=O)C(C)Oc2ccccc2)c1 (stereo not drawn)
IC50 [2]: > 100 µM (inactive)

Cc1ccc(C(=O)NC(=S)Nc2ccc3[nH]c(O)nc3c2)c(C)c1
IC50 [3]: > 66 µM (inactive)
IC50 [4]: > 66 µM (inactive)

COc1cccc(NC(=O)COc2c(F)c(F)c(C(F)(F)F)c(F)c2F)c1
IC50 [5]: 10.5 µM (active)
IC50 [6]: 12.2 µM (active)

N#Cc1ccc(CSc2ccc(S(=O)(=O)N3CCCC3)cn2)cc1
IC50 [5]: 6.67 µM (active)
IC50 [6]: 8.8 µM (active)

Cc1nc(NC(=S)NC(=O)c2ccco2)sc1C(=O)N(C)C
IC50 [3]: > 66 µM (inactive)
IC50 [4]: > 66 µM (inactive)

Cc1ccc(-n2ccnc(SCC(=O)NC3CCCCC3)c2=O)cc1F
IC50 [3]: > 66 µM (inactive)
IC50 [4]: > 66 µM (inactive)

c1c2c(cc3sc(N4CCOCC4)nc13)OCCO2
EC50 [7]: 11.4 µM (active)
EC50 [8]: 3.56 µM (active)

COc1cccc(CN(C)CC(=O)Nc2cccc(C(F)(F)F)c2)c1OC
EC50 [9]: > 195 µM (not active)
IC50 [10]: 3.87 µM (not active)

O=S(=O)(Oc1ccccc1C(=S)N1CCOCC1)c1ccc(Cl)cc1
IC50 [3]: > 66 µM (inactive)
IC50 [4]: > 66 µM (inactive)

CCN(CC)S(=O)(=O)c1ccc2c(c1)nc(SC(C)C(N)=O)n2-c1ccc(OC)cc1 (stereo not drawn)
IC50 [2]: > 100 µM (inactive)

CCOC(=O)C1CCN(C(=O)COC(=O)c2cc([N+](=O)[O-])ccc2N2CCOCC2)CC1
IC50 [5]: 7.1 µM (active)
IC50 [6]: 4.15 µM (active)

COc1cc(N/N=C/c2ccc(N(C)C)cc2)ncn1
EC50 [7]: 2.9 µM (active)
EC50 [8]: 0.989 µM (active)

Cc1[nH]c2ccccc2c1/C=N/NC(=S)NCc1ccccc1
IC50 [10]: 15.1 µM (not active)

O=C(NCCc1nnc2ccc(NCc3ccc(Cl)cc3)nn12)c1ccccc1
IC50 [10]: 6.17 µM (not active)

CC1=CC2=NC(=O)/C(=C\c3cccn3CCOc3cc(C)cc(C)c3)C(=N)N2O1
IC50 [10]: 0.668 µM (not active)

CCCCCOc1ccc(NC2=CC(=O)CCC2)cc1
CC50 [11]: > 40 µM (active)

CCCCCC(=O)OCc1ccc(C2=CC(=O)CC(C)(C)C2=O)cc1
IC50 [5]: 6.78 µM (active)
IC50 [6]: 7.22 µM (active)

Cc1ccc2c(c1)C(CCN)C(=O)N2Cc1ccccc1 (stereo not drawn)
EC50 [7]: > 112 µM (not active)
EC50 [8]: > 112 µM (not active)

CCCCOc1cccc(-c2cc(C(=O)NN=C(S)NCC)c3ccccc3n2)c1
EC50 [8]: 111 µM (active)

Cn1nc(C(C)(C)C)cc1NC(=O)Nc1cc(Cl)cc(Cl)c1
CC50 [11]: 11.3 µM (active)

Clc1ccc(-c2nnc(-c3ccccc3)o2)c(Cl)c1
IC50 [2]: 51.6 µM (inactive)

O=C1C=C(c2ccc3[nH]ccc3c2)C[C@@H](c2ccc(Cl)cc2)C1
CC50 [11]: > 40 µM (active)

O=C(NC(=S)NCCO)c1cn(-c2ccccc2)nc1-c1ccccc1
IC50 [3]: > 66 µM (inactive)
IC50 [4]: > 66 µM (inactive)

C=CCOC(=O)C(C#N)c1nc2ccccc2nc1N1CCN(Cc2ccc3c(c2)OCO3)CC1 (stereo not drawn)
EC50 [12]: > 60 µM (not active)
EC50 [13]: 1.18 µM (active)
EC50 [7]: 69.2 µM (active)
EC50 [8]: > 112 µM (not active)

Cc1ccc(C(=O)CCC(=O)Nc2cccc(C(F)(F)F)c2)cc1
EC50 [7]: > 112 µM (not active)
EC50 [8]: > 112 µM (not active)

COc1ccc(C(=O)CSc2nc(C(C)(C)C)nc3ccccc23)cc1
IC50 [10]: 12.6 µM (not active)

O=C(NCC(=O)N1CCOCC1)c1ccc(Cl)c(Cl)c1
IC50 [2]: > 100 µM (inactive)

COc1ccccc1CN(C)CC(=O)Nc1ccc(Cl)cc1F
IC50 [10]: > 50 µM (not active)

COc1ccc(CNC(C)C2COc3ccccc3O2)c(OC)c1 (stereo not drawn)
IC50 [2]: > 100 µM (inactive)

O=S(=O)(c1cccs1)N1CCN(Cc2nc(O)c3cc(Br)cc(Br)c3n2)CC1
IC50 [5]: 9.03 µM (active)
IC50 [6]: 12.5 µM (active)

O=C(COc1cccc2cccnc12)NNC(=O)Nc1ccccc1
IC50 [10]: < 0.4 µM (not active)

COCC(=O)Nc1ccc2c(c1)C(=O)N(C)C[C@@H](OC)[C@@H](C)CN(C)[C@H](C)CO2
AC50 [1]: 14.8 µM (active)

CCN(CC)C(=O)CSc1nnc2nnc3cc(C)ccc3n12
IC50 [3]: > 66 µM (inactive)
IC50 [4]: 49.8 µM (inactive)

Cn1nc(C(=O)O)c(=O)n(C)c1=O
IC50 [3]: > 66 µM (inactive)
IC50 [4]: > 66 µM (inactive)

O=C(/C=C/c1cc([N+](=O)[O-])ccc1OC(F)F)NCc1ccc(Cl)cc1
IC50 [5]: 0.413 µM (active)
IC50 [6]: 0.351 µM (active)

COc1ccc(N=C(S)NC(NC(=O)c2ccc(Cl)cc2Cl)C(Cl)(Cl)Cl)c([N+](=O)[O-])c1 (stereo not drawn)
EC50 [14]: 20.9 µM (active)
EC50 [15]: 1.22 µM (active)
IC50 [3]: > 66 µM (inactive)
EC50 [16]: > 150 µM (not active)
IC50 [4]: > 66 µM (inactive)

CCCCOc1cccc(-c2cc(C(=O)NNC(=S)NCC)c3ccccc3n2)c1
EC50 [7]: 2.3 µM (active)

COc1ccc(-n2c(C)nc3cc(C(=O)NCc4ccco4)ccc32)cc1
IC50 [2]: > 100 µM (inactive)

Cc1c(C)n(C)c2ccc(C(=O)NCCCN(C)C3CCCCC3)cc12
IC50 [2]: > 100 µM (inactive)

CCc1ccc(S(=O)(=O)c2nnn3c2nc(N2CCOCC2)c2ccccc23)cc1
IC50 [5]: 6.03 µM (active)
IC50 [6]: 14.3 µM (active)

O=C(CN(c1ccc(Cl)cc1)S(=O)(=O)c1ccccc1)N/N=C/c1ccco1
IC50 [5]: 6.94 µM (active)
IC50 [6]: 10.8 µM (active)

O=S(=O)(Cc1ccccc1)NCC1CCCN(Cc2ccc(F)c(F)c2)C1 (stereo not drawn)
EC50 [12]: > 60 µM (not active)
EC50 [13]: 0.199 µM (active)
IC50 [10]: 17.6 µM (not active)
